Entries after “also recorded” stand apart in the source; their conditions may differ. Counter-ions that a name gives are not always drawn.
What was measured:
[1] = system: scopolamine-induced cognitive impairment (rat Morris water maze); assay: rat Morris water maze model, scopolamine-induced cognitive impairment; type: in vivo; settings: for effect on scopolamine-induced memory impairment: 0.03 mg/kg plus scopolamine 0.5 mg/kg; for effect on ability of rats to learn platform location when administered alone: no scopolamine; for reversal of scopolamine-induced cognitive impairment with coadministered 5-HT4 antagonist: compound 0.1 mg/kg i.p. plus GR125487 1 mg/kg i.p. and scopolamine 0.5 mg/kg
Procedure: Adult, male Sprague-Dawley rats (body weight range 275-400 g) were handled by the investigator for approximately 5 minutes one day prior to each study. […] A clear Perspex® platform was located in a fixed position 1 cm below the surface of the water, and 34 cm from the wall of the tank. Four visual cues (A4-sized pictures of different black and white symbols) were equally spaced on the wall of the tank, just above the water surface. Black curtains were placed around the tank and white noise was generated throughout the test. Each rat was released into the water, facing the tank wall, at a designated starting point (i.e., at the north side of the tank), and allowed 60 seconds to locate the submerged platform after each placement. The escape latency (in seconds) between release of the rat into the water and its locating the platform was recorded automatically by means of a video camera (San Diego Instrument, CA) and tracking software (SMART software, San Diego Instrument, CA). […] The rats were allowed to remain on the platform for 30 seconds to observe the external visual cues and pair them with the relative position of the platform. The rats were then taken off the platform and dried gently with a paper towel before repeating the test three more times (from south, then east and finally west starting positions). After the fourth test, each rat was placed under a heating lamp for 5 minutes before being returned to its home cage. The entire procedure was repeated on days 2 and 3. Over the three days of testing, rats learned to associate the location of the submerged platform (and their only means to escape the water) with the visual cues. […] The number of crossings of the previous platform location and the time spent by the rat in each quadrant were recorded. Animals that had learned the location of the platform spent more time in the appropriate quadrant and repeatedly crossed that quadrant. By performing the probe test, false positives could be excluded from the analysis (i.e., rats that had previously located the platform via a strategy independent of the visual cues, such as swimming randomly until a leg hit the platform). No animals were excluded based on conflicting data between the three days of testing and the probe test. […] The following statistical tests were performed on the data: […] A two-way repeated-measures ANOVA, followed by a Bonferroni post-hoc test, was used to compare the mean escape latency for each of the three successive test days, with p<0.05 indicating a statistically significant difference. […] Pat. […] Pat. […] Donepezil hydrochloride was purchased from Changzhou Dahua Imp. and Exp. Corp. Ltd. […] Louis, Mo.) or Spectrum Chemical Mfg. Corp. (Gardena, Calif.). GR125487 sulfamate was purchased from Tocris (Ellisville, Mo.). […] Doses were expressed with respect to the free base weights of each compound.

human 5-HT4(d) receptor = human 5-HT4(d) receptor (Homo sapiens, UniProt Q13639); assay: cell-based
Procedure: HEK-293 (human embryonic kidney) cells stably-transfected with human 5-HT4(d) receptor cDNA and human APP695 cDNA (HEK293-5-HT4(d)-APP695) were grown in Dulbecco's Modified Eagles Medium (DMEM) containing D-glucose supplemented with 10% fetal bovine serum, 2 mM GlutaMax-1, and 100 units penicillin (100 μg), and 100 μg/mL streptomycin in a 5% CO2, humidified incubator at 37° C. Cells were grown under continuous selection pressure by the addition of G418 (500 ug/mL) antibiotic.
HEK293-5-HT4(d)-APP695 cells (3×10^5 cells/well) were serum-starved for 4 hr prior to incubation with agonists for 30 min (unless otherwise stated) at 37° C. The culture medium was aspirated, centrifuged to remove cellular debris and the level of sAPPα determined by Western blot. sAPPα was detected using antibody 6E10 (Signet/Covance) and a goat anti-mouse HRP-conjugated 2° antibody. Immunoreactive bands corresponding to sAPPα were visualized and quantified with ECL substrate (Pierce) and a Fluor Chem HD2 image system (Alpha Innotech). Western blot analysis of samples was conducted in duplicate.
Potency data are reported as pEC50 values, the negative decadic logarithm of the EC50 value, where EC50 is the effective concentration for a 50% maximal response. […] To determine EC50 values, data from independent experiments were fit simultaneously to a sigmoidal concentration response curve using Graph Pad Prism software (slope constrained to unity).

[2] = 0.01 mg/kg plus scopolamine 0.5 mg/kg
[3] = 0.1 mg/kg plus scopolamine 0.5 mg/kg
[4] = 1 mg/kg plus scopolamine 0.5 mg/kg

Sequence of human 5-HT4(d) receptor (Q13639 1-360 isoform Q13639-3): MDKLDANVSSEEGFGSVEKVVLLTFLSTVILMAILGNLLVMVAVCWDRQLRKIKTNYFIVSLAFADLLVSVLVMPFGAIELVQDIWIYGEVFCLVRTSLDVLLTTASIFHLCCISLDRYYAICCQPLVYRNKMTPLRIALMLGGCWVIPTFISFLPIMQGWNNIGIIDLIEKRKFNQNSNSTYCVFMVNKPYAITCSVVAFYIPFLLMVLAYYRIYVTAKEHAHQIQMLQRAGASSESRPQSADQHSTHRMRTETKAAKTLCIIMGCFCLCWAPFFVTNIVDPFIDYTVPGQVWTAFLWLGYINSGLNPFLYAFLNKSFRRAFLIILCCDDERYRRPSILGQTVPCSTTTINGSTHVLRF

| SMILES | effect on scopolamine-induced cognitive decline when administered alone [1, 2] | effect on scopolamine-induced memory impairment [1] | effect on scopolamine-induced memory impairment, mean escape latency day 3 [1, 3] | effect on ability of rats to learn platform location when administered alone ([1]; 1 mg/kg i.p.) | effect on scopolamine-induced memory impairment, mean escape latency day 3 [1, 4] | reversal of scopolamine-induced cognitive impairment with coadministered 5-HT4 antagonist [1] | also measured |
| --- | --- | --- | --- | --- | --- | --- | --- |
| CN1[C@@H]2C[C@@H](OC(=O)[C@H](CO)c3ccccc3)C[C@H]1[C@@H]1O[C@@H]12 [Scopolamine, scopolamine hydrochloride, reference compound] | – | – | – | – | – | – | attenuation of learning versus vehicle ([1]; 0.5 mg/kg i.p., p<0.025): statistically significant attenuation of learning |
| COC(=O)N1CCC(CN2CCC(CNC(=O)c3cccc4[nH]c(C(C)C)nc34)CC2)CC1 [Compound 2, 4-(4-{[(2-isopropyl-1H-benzoimidazole-4-carbonyl)amino]methyl}-piperidin-1-ylmethyl)piperidine-1-carboxylic acid methyl ester] | Neither compound 2 at a dose of 0.01 mg/kg nor donepezil at a dose of 0.1 mg/kg were found to have a significant effect | attenuated the memory impairment | achieved statistical significance | had no effect | had no effect | abolished | effect of antagonist GR113808 on compound-evoked sAPPα release (human 5-HT4(d) receptor; 10 min 1 μM GR113808 before compound at 100 nM): completely blocked; sAPPα release, concentration dependence (human 5-HT4(d) receptor; HEK293 cells with human 5-HT4(d) receptors and human APP695): concentration-dependent increase; Emax (human 5-HT4(d) receptor; read-out: Emax (% response relative to 1 μM 5-HT)): 103% |
| COc1cc2c(cc1OC)C(=O)C(CC1CCN(Cc3ccccc3)CC1)C2 (stereo not shown) [donepezil, donepezil hydrochloride, reference compound] | – | – | – | – | – | – | effect on scopolamine-induced cognitive decline when administered alone ([1]; 0.1 mg/kg plus scopolamine 0.5 mg/kg, hydrochloride): Neither compound 1 at a dose of 0.01 mg/kg nor donepezil at a dose of 0.1 mg/kg were found to have a significant effect; also recorded: Neither compound 2 at a dose of 0.01 mg/kg nor donepezil at a dose of 0.1 mg/kg were found to have a significant effect; reversal of scopolamine-induced cognitive deficit, mean escape latency day 3 ([1]; 3 mg/kg i.p. plus scopolamine 0.5 mg/kg): statistically significant reversal; effect on ability of rats to learn platform location when administered alone ([1]; 3 mg/kg i.p.): had no effect; reversal of scopolamine-induced cognitive deficit, mean escape latency day 3 ([1]; 0.3-3 mg/kg i.p. plus scopolamine 0.5 mg/kg i.p.): dose-dependent manner |
| CC(C)n1c(=O)c(C(=O)N[C@H]2C[C@H]3CC[C@@H](C2)N3C[C@@H](O)CN(C)S(C)(=O)=O)cc2ccccc21 [Compound 1, 1-isopropyl-2-oxo-1,2-dihydroquinoline-3-carboxylic acid {(1S,3R,5R)-8-[(R)-2-hydroxy-3-(methanesulfonyl-methyl-amino)propyl]-8-azabicyclo[3.2.1]oct-3-yl}amide] | Neither compound 1 at a dose of 0.01 mg/kg nor donepezil at a dose of 0.1 mg/kg were found to have a significant effect | attenuated the memory impairment | achieved statistical significance | had no effect | attenuated the memory impairment | abolished | effect on scopolamine-induced memory impairment, mean escape latency day 3 ([1]; 1 mg/kg plus scopolamine 0.5 mg/kg, listed as compound 1): had no effect |
| COc1[nH]c2ccc(F)cc2c1C(=O)OCC1CCN(CCNS(C)(=O)=O)CC1 [GR125487, reference compound] | – | – | – | – | – | – | effect in Morris water maze when administered alone ([1]; GR125487 1 mg/kg i.p. alone): had no effect |

— patent US8404711B2, “5-HT4 receptor agonist compounds for treatment of cognitive disorders” (priority 2009, dated 2013)
